The source of these data is ChEMBL document CHEMBL4665655, “Highly tunable thiosulfonates as a novel class of cysteine protease inhibitors with anti-parasitic activity against Schistosoma mansoni” (Bioorg Med Chem, 2019).

Each structure is given as a SMILES string. Some results are limits rather than exact numbers.

The nature of data set [1]: Inhibition of cysteine protease in Schistosoma mansoni assessed as reduction in schistosomula viability incubated for 7 days by inverted microscopy analysis.
Data set [2] can be described thus: Inhibition of cysteine protease in Schistosoma mansoni assessed as reduction in schistosomula viability incubated for 3 days by inverted microscopy analysis.
Another data set has as its target T1, Papain (Carica papaya, UniProt P00784).
T1 sequence (P00784 whole entry): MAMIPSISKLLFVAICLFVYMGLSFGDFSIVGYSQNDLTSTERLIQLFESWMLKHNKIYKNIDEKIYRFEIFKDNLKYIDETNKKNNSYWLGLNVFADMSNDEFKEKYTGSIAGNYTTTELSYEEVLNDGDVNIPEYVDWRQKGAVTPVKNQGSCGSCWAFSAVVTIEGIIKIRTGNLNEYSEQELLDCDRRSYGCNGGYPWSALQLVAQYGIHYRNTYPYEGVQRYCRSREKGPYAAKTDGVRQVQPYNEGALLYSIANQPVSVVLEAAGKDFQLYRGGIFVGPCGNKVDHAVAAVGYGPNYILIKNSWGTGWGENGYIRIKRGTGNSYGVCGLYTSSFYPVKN
The data set can be described thus: Inhibition of papaya papain assessed as reduction in p-nitoaniline release using Nalpha-benzoyl-L-arginine 4-nitroanilide hydrochloride as substrate measured after 1 hr.

Data set [3] in a line: Aqueous stability of the compound in 0.1 M sodium phosphate buffer at pH 6 to 7 incubated under shaken condition by HPLC analysis. The data set is classed as physicochemical.
Data set [4] in a line: Aqueous stability of the compound in 0.1 M sodium phosphate buffer assessed as half life at pH 8 incubated under shaken condition by HPLC analysis. The data set is classed as physicochemical.
A short description of data set [5]: Aqueous stability of the compound in 0.1 M sodium phosphate buffer assessed as half life at pH 7 incubated under shaken condition by HPLC analysis. The data set is classed as physicochemical.
The nature of data set [6]: Aqueous stability of the compound in 0.1 M sodium phosphate buffer assessed as half life at pH 6 incubated under shaken condition by HPLC analysis. The data set is classed as physicochemical.
A short description of data set [7]: Aqueous stability of the compound in 0.1 M sodium phosphate buffer assessed as time taken for drug degradation at pH 7 to 8 incubated under shaken condition by HPLC analysis. The data set is classed as physicochemical.

By IC50 is commonly meant the concentration at which inhibition is half-maximal. The term half-life denotes how long it takes for the measured level to halve. For the compound `CN1CCN(C(=O)N[C@@H](Cc2ccccc2)C(=O)N[C@@H](CCc2ccccc2)CSS(=O)(=O)C2CCCCC2)CC1.O=C(O)C(F)(F)F`, the results for the IC50 (in data set [1]; in data set [2]; at Papain) were 13500 nM, 25400 nM and 168 nM, respectively. Moreover, the Stabilty result in data set [3] was “Stable”. For the same compound, the half-life in data set [4] is 6 h.
For the compound `CN1CCN(C(=O)N[C@@H](Cc2ccccc2)C(=O)N[C@@H](CCCNC(=N)N)CSS(=O)(=O)c2ccc([N+](=O)[O-])cc2)CC1`, at Papain, the half-inhibitory concentration (IC50) amounted to 129 nM.
On the same count and under the same terms, next, `COc1ccc(S(=O)(=O)SC[C@H](CCCNC(=N)N)NC(=O)[C@H](Cc2ccccc2)NC(=O)N2CCN(C)CC2)cc1`: 124 nM; `CN1CCN(C(=O)N[C@@H](Cc2ccccc2)C(=O)N[C@@H](CCCNC(=N)N)CSS(=O)(=O)C2CCCCC2)CC1`: 106 nM.
In the case of `Cc1ccc(S(=O)(=O)SC[C@H](CCCNC(=N)N)NC(=O)[C@H](Cc2ccccc2)NC(=O)N2CCN(C)CC2)cc1`, at Papain, the IC50 was 162 nM.
With `CN1CCN(C(=O)N[C@@H](Cc2ccccc2)C(=O)N[C@@H](CCc2ccccc2)CSS(=O)(=O)c2ccccc2)CC1`, the IC50 was 21400 nM in data set [1], 64400 nM in data set [2] and 190 nM on Papain.
With `COc1ccc(S(=O)(=O)SC[C@H](CCc2ccccc2)NC(=O)[C@H](Cc2ccccc2)NC(=O)N2CCN(C)CC2)cc1.O=C(O)C(F)(F)F`, the figures for the IC50 (in data set [1]; in data set [2]; on Papain) were 13600 nM, 44900 nM and 148 nM, respectively. Besides, the half-life was 24 h in data set [5] and 1 h in data set [6].
In the case of `Cc1ccc(S(=O)(=O)SC[C@H](CCc2ccccc2)NC(=O)[C@H](Cc2ccccc2)NC(=O)N2CCN(C)CC2)cc1`, the IC50 was 26900 nM in data set [1], 41100 nM in data set [2] and 182 nM on Papain.
With `CN1CCN(C(=O)N[C@@H](Cc2ccccc2)C(=O)N[C@@H](CCc2ccccc2)CSS(=O)(=O)c2ccc([N+](=O)[O-])cc2)CC1.O=C(O)C(F)(F)F`, the IC50 was found to be 14700 nM in data set [1], 29300 nM in data set [2] and 186 nM on Papain. The half-life in data set [6] was 1.45 h. Moreover, the Time in data set [7] was below 1 h.
`CN1CCN(C(=O)N[C@@H](Cc2ccccc2)C(=O)N[C@@H](CCCNC(=N)N)CSS(=O)(=O)c2ccccc2)CC1`: the IC50 on Papain amounted to 168 nM.
Regarding `O[C@@H](c1cc(C(F)(F)F)nc2c(C(F)(F)F)cccc12)[C@H]1CCCCN1` [(S,R)-MEFLOQUINE], the values for the IC50 in data set [1] and in data set [2] were 400 nM and 2400 nM, respectively.
As for `CN1CCN(C(=O)N[C@@H](Cc2ccccc2)C(=O)N[C@H](/C=C/S(=O)(=O)c2ccccc2)CCc2ccccc2)CC1` [K-777], the IC50 in data set [1] came to 7300 nM; in data set [2], 59900 nM; on Papain it was 81 nM.
